Source: ChEMBL document CHEMBL1201862, “PubChem BioAssay data set” (2004)
The source made the active and inactive calls. For most assays here, no stated cut-off is given here; in the data, actives have a measured EC50 and inactives only a lower limit.

Assays:
[1] = biological target: T1, Zinc finger protein mex-5 (Caenorhabditis elegans, UniProt Q9XUB2); assay: potency of MEX-5 RNA-binding blockers – biochemical, C. elegans, fluorescence polarization, dose response (AID 1960)
T1 sequence (Q9XUB2 whole entry): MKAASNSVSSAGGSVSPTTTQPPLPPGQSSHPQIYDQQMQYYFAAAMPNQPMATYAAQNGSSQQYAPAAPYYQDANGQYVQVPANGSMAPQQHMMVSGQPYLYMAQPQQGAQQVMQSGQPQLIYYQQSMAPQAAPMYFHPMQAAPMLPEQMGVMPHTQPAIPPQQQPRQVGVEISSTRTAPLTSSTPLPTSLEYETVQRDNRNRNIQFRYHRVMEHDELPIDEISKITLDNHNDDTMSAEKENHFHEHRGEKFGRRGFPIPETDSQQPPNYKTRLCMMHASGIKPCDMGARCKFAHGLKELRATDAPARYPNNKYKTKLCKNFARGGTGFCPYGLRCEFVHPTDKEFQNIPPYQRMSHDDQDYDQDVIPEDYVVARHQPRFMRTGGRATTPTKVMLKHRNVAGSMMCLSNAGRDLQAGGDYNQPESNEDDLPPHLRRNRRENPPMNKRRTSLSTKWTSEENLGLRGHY

[2] = Luminescence Cell-Based Dose Confirmation HTS to Identify Inhibitors of Platelet Dense Granule Release. [Related pubchem assays: 1663 (Primary HTS), 1678 (Summary of Project)]; assay type: functional
[3] = biological target: T2, RNA-binding protein pos-1 (Caenorhabditis elegans, UniProt G5EF15); assay: disruptors of C. elegans POS-1 RNA interaction – biochemical, fluorescence polarization, dose response (AID 1964);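 further: purified POS-1 fused to maltose binding protein made in E. coli; potency of compounds blocking POS-1 binding to fluorescent RNA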
T2 sequence (G5EF15 whole entry): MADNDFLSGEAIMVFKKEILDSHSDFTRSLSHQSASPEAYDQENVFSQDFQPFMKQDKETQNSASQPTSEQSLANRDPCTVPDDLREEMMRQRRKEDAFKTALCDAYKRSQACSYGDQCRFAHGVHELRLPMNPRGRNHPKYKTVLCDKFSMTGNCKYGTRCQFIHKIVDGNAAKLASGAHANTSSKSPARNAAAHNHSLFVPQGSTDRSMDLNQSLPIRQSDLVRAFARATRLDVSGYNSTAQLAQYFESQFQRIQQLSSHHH

[4] = biological target: Luciferin 4-monooxygenase (Photinus pyralis, UniProt P08659); assay: inhibition of purified Photinus pyralis luciferase – biochemical, luminescence, dose response (AID 1891)
[5] = P. falciparum Dd2 growth inhibitors, dose response, SYBR Green, cherry-picked samples (AID 1159567); assay type: functional, cell-based
BJ [6] = assay: BJ-TERT fibroblast viability loss – cell-based, RAS-independent, luminescence, dose response (AID 1933); assay type: functional; settings: Homo sapiens
[7] = Luminescence Cell-Based Dose Response HTS to Identify Inhibitors of 5'UTR Stem-Loop Driven Prion Protein mRNA Translation in H4 Neuroglioblastoma Cells. [Related pubchem assays: 1827 (Project Summary), 1813 (Primary HTS)]; assay type: functional
INS1 = assay: INS-1E survival protection against cytokine death – cell-based, luminescence, retest, dose response (AID 449756); assay type: functional; settings: Rattus norvegicus;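 further: cell death triggered by IL-1 beta plus TNF-alpha plus IFN-gamma mixture; protective hits raise ATP signal compared with cytokine alone wells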
BJ [8] = assay: BJ-TERT-LT-ST fibroblast viability loss – cell-based, RAS-independent, luminescence, dose response (AID 1935); assay type: functional; settings: Homo sapiens;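 further: BJ fibroblasts immortalized with TERT plus LT and ST oncogenes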
[9] = luciferase reporter signal suppression in cells – H4 neuroglioma cells, luminescence, dose response (AID 1990); assay type: functional, cell-based
[10] = DRD fibroblast viability loss – cell-based, non-viral oncogenic, luminescence, dose response (AID 1934); assay type: functional; settings: Homo sapiens
BJ [11] = assay: cells; assay type: functional, cell-based; settings: Homo sapiens
[12] = alpha-synuclein stem-loop luciferase translation blockers – H4 neuroglioma cells, luminescence, confirmation (AID 1988); assay type: functional, cell-based
Protein RecA = biological target: T3, Protein RecA (Mycobacterium tuberculosis, UniProt P9WHJ3); assay: Fluorescence Cell-Free Homogeneous Dose Retest to Identify Inhibitors of RecA-Intein Splicing Activity. [Related pubchem assays (depositor defined):AID2097, AID2223, AID489010, AID492950]; assay type: functional
T3 sequence (P9WHJ3 whole entry): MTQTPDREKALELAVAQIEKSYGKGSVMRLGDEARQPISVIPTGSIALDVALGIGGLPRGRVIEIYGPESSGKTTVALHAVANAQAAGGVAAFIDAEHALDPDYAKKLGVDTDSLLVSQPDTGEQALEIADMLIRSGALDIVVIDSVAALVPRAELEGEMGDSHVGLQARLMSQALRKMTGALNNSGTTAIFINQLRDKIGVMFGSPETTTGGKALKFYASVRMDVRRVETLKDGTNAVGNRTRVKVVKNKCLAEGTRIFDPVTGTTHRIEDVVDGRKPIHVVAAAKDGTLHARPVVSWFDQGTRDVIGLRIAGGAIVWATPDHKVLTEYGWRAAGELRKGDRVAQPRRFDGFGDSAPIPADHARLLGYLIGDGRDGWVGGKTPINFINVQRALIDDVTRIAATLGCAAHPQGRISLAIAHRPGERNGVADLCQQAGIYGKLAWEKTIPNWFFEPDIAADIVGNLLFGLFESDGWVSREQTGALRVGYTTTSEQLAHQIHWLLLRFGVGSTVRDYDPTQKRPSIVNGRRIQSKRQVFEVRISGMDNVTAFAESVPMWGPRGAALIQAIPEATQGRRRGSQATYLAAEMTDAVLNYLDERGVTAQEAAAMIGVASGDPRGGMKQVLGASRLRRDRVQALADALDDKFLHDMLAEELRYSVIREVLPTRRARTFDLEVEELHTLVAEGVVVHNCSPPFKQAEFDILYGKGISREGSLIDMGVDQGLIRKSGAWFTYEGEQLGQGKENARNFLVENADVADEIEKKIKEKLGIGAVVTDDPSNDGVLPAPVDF

[13] = biological target: T4, Replicative DNA helicase DnaB (Mycobacterium tuberculosis, UniProt P9WMR3); assay: DnaB intein splicing inhibitors, dose response, biochemical, cell-free fluorescence (AID 449749); assay type: functional
T4 sequence (P9WMR3 whole entry): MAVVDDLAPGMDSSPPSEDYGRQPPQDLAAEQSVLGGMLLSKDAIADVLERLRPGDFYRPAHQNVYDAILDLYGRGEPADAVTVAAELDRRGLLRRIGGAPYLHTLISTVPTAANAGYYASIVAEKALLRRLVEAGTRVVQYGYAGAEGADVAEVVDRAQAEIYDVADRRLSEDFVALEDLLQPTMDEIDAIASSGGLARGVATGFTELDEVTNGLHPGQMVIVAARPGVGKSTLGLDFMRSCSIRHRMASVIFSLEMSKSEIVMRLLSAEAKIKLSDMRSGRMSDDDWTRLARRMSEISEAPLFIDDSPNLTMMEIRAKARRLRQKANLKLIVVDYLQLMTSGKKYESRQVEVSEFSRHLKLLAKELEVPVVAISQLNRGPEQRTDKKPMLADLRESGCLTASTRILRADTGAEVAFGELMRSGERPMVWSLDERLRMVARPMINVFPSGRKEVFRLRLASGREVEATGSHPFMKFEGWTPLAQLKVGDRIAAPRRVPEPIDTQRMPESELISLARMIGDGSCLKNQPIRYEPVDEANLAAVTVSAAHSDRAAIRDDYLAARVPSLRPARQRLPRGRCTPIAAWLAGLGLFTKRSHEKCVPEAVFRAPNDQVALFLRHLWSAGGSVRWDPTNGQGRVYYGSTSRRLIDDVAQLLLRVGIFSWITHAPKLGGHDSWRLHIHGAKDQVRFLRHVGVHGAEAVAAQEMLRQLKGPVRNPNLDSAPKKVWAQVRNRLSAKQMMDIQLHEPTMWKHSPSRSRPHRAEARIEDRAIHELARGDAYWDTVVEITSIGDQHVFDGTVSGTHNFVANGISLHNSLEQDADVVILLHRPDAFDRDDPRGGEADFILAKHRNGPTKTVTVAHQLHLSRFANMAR

[14] = Trypanosoma cruzi growth suppression in host cells – NIH3T3 host cells, beta-gal luminescence, confirmation (AID 2044); assay type: functional, cell-based;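 further: intracellular parasites grown in NIH/3T3 mouse fibroblasts as host cells; luminescent beta-galactosidase reporter signal from transgenic T. cruzi replicating inside host cells; inhibitors lower the luminescence signal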
[15] = NIH3T3 cell viability loss – ATP luminescence, mouse fibroblasts, counter-screen, dose response (AID 2010); assay type: functional, cell-based;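 further: cells exposed to compound for about 90 hours before reading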
[16] = reduction of Shn3 3'UTR-driven luciferase in osteoblasts – cell-based, Clone20 osteoblasts, firefly luciferase, cherry-picked, dose response (AID 624132); assay type: functional;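 further: firefly luciferase luminescence from reporter carrying the Shn3 3'UTR in osteoblasts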

Luciferin 4-monooxygenase, sequence (P08659 whole entry): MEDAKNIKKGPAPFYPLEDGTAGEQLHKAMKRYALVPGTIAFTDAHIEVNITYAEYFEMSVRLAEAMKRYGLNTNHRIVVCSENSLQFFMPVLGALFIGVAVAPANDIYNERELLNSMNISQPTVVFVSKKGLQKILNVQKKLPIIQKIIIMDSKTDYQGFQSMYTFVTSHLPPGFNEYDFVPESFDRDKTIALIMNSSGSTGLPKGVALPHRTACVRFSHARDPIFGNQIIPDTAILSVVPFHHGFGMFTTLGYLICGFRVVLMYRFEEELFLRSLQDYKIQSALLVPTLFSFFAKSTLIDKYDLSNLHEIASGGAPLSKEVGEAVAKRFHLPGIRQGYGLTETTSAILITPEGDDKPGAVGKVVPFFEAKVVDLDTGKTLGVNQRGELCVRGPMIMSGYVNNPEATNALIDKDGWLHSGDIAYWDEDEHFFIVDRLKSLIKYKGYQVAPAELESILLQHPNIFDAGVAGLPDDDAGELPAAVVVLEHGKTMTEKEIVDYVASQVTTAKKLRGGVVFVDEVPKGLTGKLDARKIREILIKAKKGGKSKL

CSc1nnc(N2C(=O)C(O)=C(C(=O)c3ccco3)C2c2ccc(F)cc2)s1 (stereo not drawn)
EC50 [1]: 82.8 µM (active) | EC50 [2]: > 112 µM (not active) | EC50 [3]: > 150 µM (not active) | EC50 [4]: > 112 µM (not active)

O=C(C[C@@H]1CC[C@@H]2[C@H](COC[C@@H](O)CN2S(=O)(=O)c2ccccc2)O1)NCc1ccc(-c2ccccc2)cc1
AC50 [5]: 6.32 µM (active)

NC(=O)c1sc2nnc(-c3ccccc3)c(-c3ccccc3)c2c1N
EC50 [1]: > 300 µM (not active) | EC50 [3]: > 300 µM (not active)

O=C(NCc1ccccc1)C1=C[C@@H](c2csc3ccccc23)C[C@@H](OCCCCO)O1
EC50 (BJ [6]): 22.8 µM (inconclusive) | EC50 [7]: 10.5 µM (active) | AC50 (INS1): 1.43 µM (active) | EC50 (BJ [8]): > 150 µM (not active) | EC50 [9]: 11.2 µM (active) | EC50 [10]: 28.4 µM (active) | EC50 (BJ [11]): 35.8 µM (active) | EC50 [12]: 9.75 µM (active)

N=c1c(C(=O)NCC2CCCO2)cc2c(=O)n3ccccc3nc2n1Cc1ccccc1Cl (stereo not drawn)
EC50 [1]: 195 µM (active) | EC50 [3]: 104 µM (active)

COC(=O)CC1=NN(c2ccc(OC)cc2)C(=O)C1
EC50 (Protein RecA): 13.1 µM (active) | AC50 [13]: 54.9 µM (active)

Cc1ccc(/C=N/NC(=O)c2nnn(-c3nonc3N)c2-c2cccs2)cc1
EC50 [1]: > 300 µM (not active) | EC50 [3]: > 300 µM (not active)

COCCCNC(=O)C(C#N)c1nc2ccccc2nc1N1CCCC1 (stereo not drawn)
EC50 [1]: > 300 µM (inconclusive) | EC50 [3]: 23.8 µM (active)

CCCCS/C(=C(/C#N)C(N)=O)c1cc2c([nH]1)CCCC2
EC50 (Protein RecA): 15.6 µM (active) | AC50 [13]: > 380 µM (inactive)

O=C1NC(=O)N(c2ccccc2)C(=O)/C1=C\NN1C(=O)c2cccc3cccc(c23)C1=O
EC50 [1]: 72 µM (active) | EC50 [3]: > 300 µM (not active)

Cc1ccc(/C=C/C(=O)c2ccc(N3CCOCC3)cc2)s1
EC50 [1]: > 300 µM (not active) | EC50 [3]: > 300 µM (not active)

Cc1ccc(N/C=C2/Sc3ccccc3NC2=O)cc1
EC50 [14]: 0.806 µM (active) | EC50 [15]: > 30 µM (not active) | EC50 [1]: > 300 µM (inconclusive) | EC50 [3]: > 300 µM (not active)

Cc1nn(-c2ccccc2)c2c1C(c1ccccc1)C(C#N)=C(N)O2 (stereo not drawn)
EC50 (Protein RecA): 9.07 µM (active) | AC50 [13]: 16.8 µM (active)

CO[C@@H]1CN(C)C(=O)c2cc(NC(=O)Nc3cccc(Cl)c3)ccc2OC[C@H](C)NC[C@H]1C
AC50 [5]: 6.78 µM (active)

COc1cc(CN2[C@@H]3CNC[C@H]2[C@@H]3c2ccc(-c3ccccc3)cc2)cc(OC)c1
AC50 [5]: 6.99 µM (active)

C[C@H]1CN([C@@H](C)CO)S(=O)(=O)c2ccc(C#Cc3ccccc3)cc2O[C@H]1CN(C)C(=O)C1CC1
AC50 [5]: 3.95 µM (active)

CCOC(=O)Cc1n[nH]c2c1C(c1cc(OC)ccc1OC)C(C#N)=C(N)O2 (stereo not drawn)
EC50 (Protein RecA): 13.3 µM (active) | AC50 [13]: 73.9 µM (active)

Cc1nn(C)c(Oc2ccccc2)c1CCNC(=O)CCl
EC50 (BJ [6]): 28.9 µM (active) | EC50 (BJ [8]): > 150 µM (not active) | EC50 [10]: > 150 µM (not active) | EC50 (BJ [11]): > 150 µM (not active)

COc1ccc(C2C(C#N)=C(N)OC3=C2C(=O)CC(C)C3)c(OC)c1OC (stereo not drawn)
EC50 [1]: > 300 µM (not active) | EC50 [3]: > 300 µM (not active)

O=C1CN(S(=O)(=O)c2ccccc2)C[C@@H]2[C@H](c3ccc(C#CCc4ccccc4)cc3)[C@@H](CO)N12
AC50 [5]: 4.23 µM (active)

CCOC(=O)Cn1c(S(=O)(=O)Cc2ccccc2Cl)nc(-c2ccccc2)c1-c1ccccc1
AC50 [16]: 9.29 µM (active)

Cc1nc2sc3c(c2c(=O)n1NC(=O)CCl)CCCC3
EC50 (BJ [6]): 30.8 µM (active) | EC50 (BJ [8]): > 150 µM (inconclusive) | EC50 [10]: > 150 µM (not active) | EC50 (BJ [11]): > 150 µM (not active)

O=[N+]([O-])c1c(O)nc(O)nc1/C=C/c1cccnc1
EC50 (Protein RecA): > 380 µM (inactive) | AC50 [13]: > 380 µM (inactive)

N#Cc1cc2c(nc1SCC(=O)Nc1sc3c(c1C#N)CCC3)CCC2
EC50 (BJ [6]): 98.7 µM (active) | EC50 (BJ [8]): > 75 µM (not active) | EC50 [10]: 32.8 µM (active) | EC50 (BJ [11]): > 150 µM (not active)
